According to patent publication US20160271263A1 (Novo Nordisk A/S, priority 2010, published 2016):
Numbered stars: 1 amine (or outer) side, 2 acyl side, 3 side chain; on linkers, the order of the positions; unused ones are H or OH. Side chains are listed from the residue outwards. Peptide text beside a SMILES is read from it. * marks the point of attachment. C18 diacid = O=C(O)CCCCCCCCCCCCCCCCC(=O)*; γGlu = O=C(O)[C@H](CCC(=O)[*:2])N[*:1]; AEEA = NCCOCCOCC(=O)O

Molecular target: glucagon receptor (Homo sapiens, UniProt P47871)
Sequence (P47871 26-477): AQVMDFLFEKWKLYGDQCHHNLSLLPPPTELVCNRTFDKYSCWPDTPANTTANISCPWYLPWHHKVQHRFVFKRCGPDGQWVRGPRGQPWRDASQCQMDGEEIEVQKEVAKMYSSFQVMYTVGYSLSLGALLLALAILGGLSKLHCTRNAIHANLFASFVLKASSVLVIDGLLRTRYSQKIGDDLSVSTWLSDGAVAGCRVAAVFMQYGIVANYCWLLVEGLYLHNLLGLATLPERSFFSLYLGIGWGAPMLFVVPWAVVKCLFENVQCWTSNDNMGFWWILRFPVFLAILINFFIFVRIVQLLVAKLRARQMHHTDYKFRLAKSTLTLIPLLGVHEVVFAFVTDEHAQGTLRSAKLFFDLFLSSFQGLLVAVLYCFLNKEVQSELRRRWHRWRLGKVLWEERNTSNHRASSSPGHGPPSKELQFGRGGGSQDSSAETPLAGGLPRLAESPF
Experiment: cell-based

SMILES	EC50
CC(C)C[C@H](NC(=O)[C@H](Cc1ccc(O)cc1)NC(=O)[C@H](CCCCN)NC(=O)[C@H](CO)NC(=O)[C@H](Cc1ccc(O)cc1)NC(=O)[C@H](CC(=O)O)NC(=O)[C@H](CO)NC(=O)[C@@H](NC(=O)[C@H](Cc1ccccc1)NC(=O)[C@@H](NC(=O)CNC(=O)[C@H](CCC(N)=O)NC(=O)[C@H](CO)NC(=O)[C@@H](N)Cc1c[nH]cn1)[C@@H](C)O)[C@@H](C)O)C(=O)N[C@@H](CC(=O)O)C(=O)N[C@@H](CCCCNC(=O)CC[C@H](NC(=O)CC[C@H](NC(=O)COCCOCCNC(=O)COCCOCCNC(=O)CC[C@H](NC(=O)CCCCCCCCCCCCCCCCC(=O)O)C(=O)O)C(=O)O)C(=O)O)C(=O)N[C@@H](CCCNC(=N)N)C(=O)N[C@@H](CCCNC(=N)N)C(=O)N[C@@H](C)C(=O)N[C@@H](CCC(N)=O)C(=O)N[C@@H](CCC(=O)O)C(=O)N[C@@H](Cc1ccccc1)C(=O)N[C@H](C(=O)N[C@@H](CCC(N)=O)C(=O)N[C@@H](CCCNC(=N)N)C(=O)N[C@@H](CC(C)C)C(=O)N[C@@H](CC(C)C)C(=O)N[C@@H](CC(N)=O)C(=O)N[C@H](C(=O)O)[C@@H](C)O)C(C)C [Example 100, N^ε16-[(4S)-4-carboxy-4-[[(4S)-4-carboxy-4-[[2-[2-[2-[[2-[2-[2-[[(4S)-4-carboxy-4-(17-carboxyheptadecanoylamino)butanoyl]amino]ethoxy]ethoxy]acetyl]amino]ethoxy]ethoxy]acetyl]amino]butanoyl]amino]butanoyl]-[Lys^16,Glu^21,Arg^25,Leu^27]-Glucagon] (H-HSQGTFTSDYSKYLDK([γGlu-γGlu-AEEA-AEEA-γGlu-C18 diacid])RRAQEFVQRLLNT-OH)	0.45 nM
CC(C)C[C@H](NC(=O)[C@H](Cc1ccc(O)cc1)NC(=O)[C@H](CCCCN)NC(=O)[C@H](CO)NC(=O)[C@H](Cc1ccc(O)cc1)NC(=O)[C@H](CC(=O)O)NC(=O)[C@H](CO)NC(=O)[C@@H](NC(=O)[C@H](Cc1ccccc1)NC(=O)[C@@H](NC(=O)CNC(=O)[C@H](CCC(N)=O)NC(=O)[C@H](CO)NC(=O)[C@@H](N)Cc1c[nH]cn1)[C@@H](C)O)[C@@H](C)O)C(=O)N[C@@H](CC(=O)O)C(=O)N[C@@H](CO)C(=O)N[C@@H](CCCNC(=N)N)C(=O)N[C@@H](CCCNC(=N)N)C(=O)N[C@@H](C)C(=O)N[C@@H](CCC(=O)O)C(=O)N[C@@H](CC(=O)O)C(=O)N[C@@H](Cc1ccccc1)C(=O)N[C@H](C(=O)N[C@@H](CCCCNC(=O)CC[C@H](NC(=O)CC[C@H](NC(=O)COCCOCCNC(=O)COCCOCCNC(=O)CC[C@H](NC(=O)CCCCCCCCCCCCCCCCC(=O)O)C(=O)O)C(=O)O)C(=O)O)C(=O)N[C@@H](Cc1c[nH]c2ccccc12)C(=O)N[C@@H](CC(C)C)C(=O)N[C@@H](CC(C)C)C(=O)N[C@@H](CO)C(=O)N[C@H](C(=O)O)[C@@H](C)O)C(C)C [Example 101, N^ε24-[(4S)-4-carboxy-4-[[(4S)-4-carboxy-4-[[2-[2-[2-[[2-[2-[2-[[(4S)-4-carboxy-4-(17-carboxyheptadecanoylamino)butanoyl]amino]ethoxy]ethoxy]acetyl]amino]ethoxy]ethoxy]acetyl]amino]butanoyl]amino]butanoyl]-[Glu^20,Lys^24,Leu^27,Ser^28]-Glucagon]	0.307 nM
